In article PMC5915149, “The role of oxidative stress in activity of anticancer thiosemicarbazones” (Oncotarget, 2018):
Entries after “also recorded” stand apart in the source; their conditions may differ. Where two headings read alike, the source gives them in different places.

Legend:
HCT116 [1] = assay: MTS antiproliferative assay, HCT116 (with or without added metal ions); assay type: cell-based, human; details: for Selectivity index, calculated for HCT116: versus NHDF
Experimental: (§1) The cells were seeded in 96-well plates (Nunc) at a density of 3,500 cells/well (HCT116 and MCF-7) and 3,000 cells/well (NHDF) and incubated at 37° C for 24 h. The assay was performed following a 96 h incubation with varying concentrations of the compounds that were being tested. Then, 20 µL of CellTiter 96® AQueous One Solution-MTS (Promega) was added to each well (with 100 µL DMEM without phenol red) and incubated for 1 h at 37° C. The optical densities of the samples were analyzed at 490 nm using a multi-plate reader (Synergy 4, Bio Tek). Results were expressed as a percentage of the control and calculated as the inhibitory concentration (IC50) values (using GraphPad Prism 5). The IC50 parameter was defined as the compound concentration that was necessary to reduce the proliferation of cells to 50% of the untreated control. Each individual compound was tested in triplicate in a single experiment with each experiment being repeated three or four times.
(§2) The HCT116 and MCF-7 cells were seeded in 96-well plates (Nunc) at a density of 3,500 cells/well and incubated at 37° C for 24 h. The MTS assay was performed following a 96 h incubation with varying concentrations of the tested compounds. Additionally, a 20 µM solution of CuSO4, FeSO4 or FeCl3 was added into wells with the tested compounds. The results were expressed as a percentage of the control and calculated as the inhibitory concentration (IC50) values using GraphPad Prism 5. Each individual compound was tested in triplicate in a single experiment with each experiment being repeated three times.

MCF-7 = assay: MTS antiproliferative assay, MCF-7 (with or without added metal ions); assay type: cell-based, human; details: for improvement in cytotoxicity after interacting with Cu^2+: MCF-7 cells, 20 µM CuSO4; for Selectivity index, calculated for MCF-7: versus NHDF
Experimental: as §1, §2

MnSOD = assay: mRNA expression (Real-Time PCR) of MnSOD; assay type: cell-based, human; details: HCT116, TSC 1 µM, 12 or 24 h
Experimental: (§3) The HCT116 cells were seeded in 3 cm Petri dishes (Nunc) at a density of 0.5·10^6 cells/well and incubated overnight. Next, the medium was removed and solutions of TSC (1 μM) and DOX (5 μM) were added. After 12 or 24 h, total RNA was isolated from the cells using TRIzol Reagent (Ambion) according to the manufacturer’s instructions. cDNA synthesis was performed with 5 μg of total RNA using a GoScript™ Reverse Transcriptase kit (Promega) and Oligo(dT)23 Primers (Sigma). The Real-Time PCR was performed with a CTX96 Touch™ Real-Time PCR Detection System (Biorad) in a 20 μL reaction volume. The reaction consisted of PowerUp™ SYBR® Green Master Mix (Applied Biosystems), a primer pair mix (0.5 μM each) and 1 μL of cDNA. All primer pair sequences were purchased from Sigma-Aldrich and are listed in Supplementary Table 2. The experiment was performed under the following conditions: initial denaturation at 95° C for 120 sec; followed by 40 denaturation cycles at 95° C, 15 sec; annealing (primer-specific temperature for 30 sec) and extension at 72° C for 60 sec. Data was analyzed based on a comparison of the expression of the target genes to a reference gene – β-actin, using the 2^–ΔΔCT method. The experiments were performed at least three times.

calf-thymus DNA (CT-DNA) = assay: Intercalation, absorption spectra with CT-DNA; assay type: binding; details: for % hypochromism / Changes in absorbance / Δε: bound to CT-DNA; for blue/red shift: wavelengths of maximum absorption, compound alone vs DNA-bound
Experimental: For the DNA binding studies, Calf-thymus DNA (CT-DNA) was purchased from Sigma Aldrich. The lyophilized CT-DNA was dissolved in 10 mM Tris-HCl, pH 7.9, mixed gently and left overnight at 4° C. The purity of the CT-DNA solution was determined by measuring the ratio of UV absorbance at 260 and 280 nm. […] Then, the concentration of CT-DNA was determined from the absorbance at 260 nm using an extinction coefficient of 6600 M^–1cm^–1. The tested TSC and DOX were dissolved in DMSO to a concentration of 8.35 mM, which was then used as the stock solution for preparing the various concentrations (25, 12.5, 6 and 3 µM) in 1 mL in 10 mM of Tris-HCl (pH 7.9). Afterwards, 18 µM CT-DNA was added to the prepared solutions, which were incubated for 1.5 h at 37° C with occasional vortexing. The absorption spectra were measured using a Hitachi U-2900 spectrophotometer in range of 200–500 nm. All absorption spectra were imported and compared in OriginPro 8.0.

HCT116 [2] = test system: HCT116; set-up: method as in PMID 25329549; details: 96 h incubation, MTS; cited from earlier work
NHDF [3] = test system: NHDF; set-up: method as in PMID 25329549; details: 96 h incubation, MTS; cited from earlier work
NHDF [4] = assay: MTS cytotoxicity assay, normal fibroblasts; assay type: cell-based, human; details: Homo sapiens, NHDF, 96 h incubation
Experimental: as §1

p21 = assay: Western blot of p21; assay type: cell-based, human; details: HCT116, 1 µM
Experimental: (§4) The HCT116 cells were seeded in 3 cm Petri dishes (Nunc) at a density of 0.5·10^6 cells/well and incubated overnight. The next day, solutions of TSC (1 μM) and DOX (5 μM) were added and the cells incubated for 24 or 48 h. Cells were harvested by trypsinization and washed with cold PBS. Next, the cells were centrifuged and suspended in an RIPA buffer (Thermo Scientific) containing Halt Protease Inhibitor Cocktail (Thermo Scientific), Halt Phosphatase Inhibitor Cocktail (Thermo Scientific) along with 0.5 M EDTA and lysed for 20 min on ice. Then, the lysates were sonicated, centrifuged at 10,000 rpm for 10 min at 4° C and the supernatants were collected for further analysis. The protein concentration was determined using a Micro BCA™ Protein Assay Kit (Thermo Scientific) according to the manufacturer’s instructions. Equal amounts of the proteins (20 μg) were electrophoresed on SDS-Page gels and transferred onto a nitrocellulose membranes. The membranes were blocked in 5% non-fat milk prepared in PBS containing 0.1% Tween-20 (TPBS) for 1 h. After blocking, the membranes were incubated with specific primary antibodies: cdc2 (#POH1, Cell Signaling), p21^Waf1/Cip1 (#12D1, Cell Signaling), p53 (#1C12, Cell Signaling) and β-Actin (#8H10D10, Cell Signaling) overnight at 4° C, then washed and incubated with horseradish peroxidase (HRP)-conjugated secondary antibodies for 1h at room temperature. All of antibodies were diluted 1:1000 in 5% milk in TPBS. Finally, the membranes were washed and incubated with a SuperSignal™ West Pico Chemiluminescent Substrate (Thermo Scientific). The chemiluminescence signals were captured using a ChemiDoc™ XRS+ System (BioRad). The experiments were performed at least three times. Densitometric analysis was performed using ImageJ 1.41 software (Wayne Rasband, National Institutes of Health, USA).

cdc2 = assay: Western blot of cdc2; assay type: cell-based, human; details: HCT116, 1 µM
Experimental: as §4

HCT116 cells = assay: Cell cycle assay (Muse Cell-Cycle Kit); assay type: cell-based, human; details: HCT116, TSC 1 µM, 48 h
Experimental: The HCT116 cells were seeded in 3 cm Petri dishes (Nunc) at a density of 0.25·10^6 cells/well and incubated at 37° C for 24 h. […] After a 48 h treatment, assays were performed using a Muse Cell-Cycle Kit (Millipore) according to the manufacturer’s instructions. Briefly, cells were collected, washed with cold PBS and centrifuged at 300 g. Then, the cells were fixed in ice cold 70% ethanol and stored at –20° C overnight. Afterwards, the cells were centrifuged and resuspended in 200 μL of Muse™ Cell Cycle Reagent and incubated for 30 min at room temperature in the dark. After staining, the cells were processed for cell cycle analysis using a Muse Cell Analyzer (Millipore). The experiments were performed at least three times.

CAT = assay: mRNA expression (Real-Time PCR) of CAT; assay type: cell-based, human; details: HCT116, TSC 1 µM, after the first 12 h
Experimental: as §3

Ndrg1 = assay: mRNA expression (Real-Time PCR) of Ndrg1; assay type: cell-based, human; details: HCT116, TSC 1 µM, 24 h
Experimental: as §3

[5] = 96 h, 20 µM CuSO4 added, read-out: Activity - IC50 HCT116+ Cu^2+
[6] = 96 h, 20 µM FeCl3 added, read-out: Activity - IC50 HCT116+ Fe^3+
[7] = 96 h, 20 µM CuSO4 added, read-out: Activity - IC50 MCF-7+ Cu^2+
[8] = 96 h, 20 µM FeCl3 added, read-out: Activity - IC50 MCF-7+ Fe^3+
[9] = 96 h incubation, MTS, read-out: Activity - IC50 MCF-7
[10] = Homo sapiens, HCT-116, 96 h, 20 µM CuSO4 added, read-out: Activity - IC50 HCT116+ Cu^2+
[11] = Homo sapiens, HCT-116, 96 h, 20 µM FeCl3 added, read-out: Activity - IC50 HCT116+ Fe^3+
[12] = Homo sapiens, MCF7, 96 h, 20 µM CuSO4 added, read-out: Activity - IC50 MCF-7+ Cu^2+
[13] = Homo sapiens, MCF7, 96 h, 20 µM FeCl3 added, read-out: Activity - IC50 MCF-7+ Fe^3+
[14] = Homo sapiens, MCF7, 96 h incubation, MTS, read-out: Activity - IC50 MCF-7

SMILES | IC50 (HCT116 [1]; [5]) | IC50 (HCT116 [1]; [6]) | IC50 (MCF-7; [7]) | IC50 (MCF-7; [8]) | IC50 (MCF-7; [9]) | mRNA expression of MnSOD (MnSOD) | % hypochromism (calf-thymus DNA (CT-DNA)) | Changes in absorbance (calf-thymus DNA (CT-DNA)) | Δε (calf-thymus DNA (CT-DNA)) | blue/red shift (calf-thymus DNA (CT-DNA)) | IC50 (HCT116 [2]) | IC50 (NHDF [3]) | IC50 (HCT116 [1]; [10]) | IC50 (HCT116 [1]; [11]) | Selectivity index, calculated for HCT116 (HCT116 [1]) | IC50 (MCF-7; [12]) | IC50 (MCF-7; [13]) | expression of p21 protein (densitometric analysis) (p21) | expression of cdc2 protein (densitometric analysis) (cdc2) | cells in S phase (HCT116 cells) | further results
S=C(NN=Cc1ccc2ccccc2n1)N1CCN(c2cnccn2)CC1 [Compound 1a] | 59.6 ± 6.45 nM | 96.9 ± 16.9 nM | 44.9 ± 3.77 nM | 273 ± 35.6 nM | 219 ± 15.1 nM | after the initial decline (for 12 h) there is a small increase | 22.0% | hypochromism | 3175.6 M⁻¹ cm⁻¹ | 1 nm | 87.7 ± 43.9 nM | 9440 nM |  |  |  |  |  |  |  |  | 
Fc1ccc(N2CCN(C(=S)NN=Cc3ccc4ccccc4n3)CC2)cc1 [Compound 1b, 4-(4-fluorophenyl)-N’-[(quinolin-2-yl)methylidene]piperazine-1-carbothiohydrazide] |  |  |  |  |  | large drop | 24.2% | hypochromism | 2313.3 M⁻¹ cm⁻¹ | 10 nm |  |  | 19.7 ± 0.53 nM | 72.4 ± 12.9 nM | 1.8 | 3.78 ± 0.88 nM | 25 ± 2.16 nM | increased p21 level, but in a lesser degree | lowest values; also recorded: strongest decreasing effect |  | IC50 (HCT116 [1]; Homo sapiens, HCT-116, 96 h incubation, MTS, read-out: Activity - IC50 HCT116): 62.2 ± 8.95 nM; IC50 (MCF-7; [14]): 31.4 ± 3.38 nM; improvement in cytotoxicity after interacting with Cu^2+ (MCF-7): eight-fold; Selectivity index, calculated for MCF-7 (MCF-7): 3.6; IC50 (NHDF [4]): 114 ± 10.3 nM
Oc1cccc2ccc(C=NNC(=S)N3CCOCC3)nc12 [Compound 2a] | 1.39 ± 0.44 nM | 7.57 ± 1.19 nM | 2.39 ± 0.42 nM | 8.83 ± 1.29 nM | 10.9 ± 2.85 nM | slight increase | 15.7% | hypochromism | 1935.6 M⁻¹ cm⁻¹ | 10 nm | 3.84 ± 1.46 nM | 10600 nM |  |  |  |  |  |  |  | 33–35% | 
Oc1cccc2ccc(C=NNC(=S)N3CCN(c4cnccn4)CC3)nc12 [Compound 2b] | 4.17 ± 1.12 nM | 78.2 ± 14 nM | 5.49 ± 1.19 nM | 35.8 ± 5.82 nM | 32.2 ± 6.85 nM |  | 9.4% | hypochromism | 1888.9 M⁻¹ cm⁻¹ | 5 nm | 50.5 ± 28.1 nM | 12100 nM |  |  |  |  |  |  | increased the expression | 33–35% | improvement in cytotoxicity after interacting with Cu^2+ (HCT116 [1]; HCT116 cells, 20 µM CuSO4): more than a ten-fold increase; mRNA expression of CAT (CAT): higher; mRNA expression of Ndrg1 (Ndrg1): strongest
S=C(NN=C(c1ccccn1)c1ccccn1)N1CCN(c2ccccn2)CC1 [Compound 3b] | 1.56 ± 0.44 nM | 9.94 ± 2.69 nM | 0.54 ± 0.15 nM | 5.35 ± 0.66 nM | 4.1 ± 0.93 nM | large drop | 31.9% | hypochromism | 6133.3 M⁻¹ cm⁻¹ | 5 nm | 2.06 ± 0.88 nM | 160 ± 40 nM |  |  |  |  |  | increased p21 level, but in a lesser degree | strongest decreasing effect |  | improvement in cytotoxicity after interacting with Cu^2+ (MCF-7): eight-fold; mRNA expression of CAT (CAT): higher; mRNA expression of Ndrg1 (Ndrg1): strongest; cells in G0/G1 phase (HCT116 cells; untreated 72%): 39%
CN(C)C(=S)NN=C(c1ccccn1)c1ccccn1 [Dp44mT, di-2-pyridylketone 4,4-dimethyl-3-thiosemicarbazone, reference compound] |  |  |  |  |  |  | 8.2% | hypochromism | 1673.3 M⁻¹ cm⁻¹ | 2 nm | 1.4 ± 0.13 nM | 15400 nM | 0.31 ± 0.06 nM | 1.77 ± 0.36 nM | 10985.7 | 0.13 ± 0.04 nM | 0.96 ± 0.32 nM | marked up-regulation | lowest values | 41% | IC50 (MCF-7; [14]): 0.38 ± 0.15 nM; Selectivity index, calculated for MCF-7 (MCF-7): 40473.7; ability to intercalate DNA (calf-thymus DNA (CT-DNA); CT-DNA, absorption spectra): very weak
